Laboratory results as given in ChEMBL document CHEMBL5505982, “Design, synthesis, biological evaluation and in silico studies of novel quinoline derivatives as potential radioprotective molecules targeting the TLR2 and p53 pathways” (Eur J Med Chem, 2024).
Activity calls are given as the source filed them. The calls are words filed in the database; no cut-off is given here.

Experiments:
[1] = test system: AHH-1; experiment: Anti-iradiation activity against human AHH-1 cells assessed as cell viability at 10 micromol preincubated with compound for 24 hrs followed by irradiation with 8 Gy and measured after 24 hrs by CCK-8 assay; format: functional; conditions: dose 10 µmol; time 48 hrs
[2] = test system: Mus musculus; experiment: Radioprotective activity in C57BL/6J mouse assessed as increase in body weight at 30 mg/kg, ip preincubated with compound for 15 to 1440 mins followed by irradiation and measured after 10, 14, 18, 22 and 30 days; format: functional, organism-based; conditions: time 15-44640 min
[3] = test system: Mus musculus; experiment: Radioprotective activity in C57BL/6J mouse assessed as increase in WBC count at 300 mg/kg, ip preincubated with compound for 15 to 1440 mins followed by irradiation at 6.5 Gy and measured at 1 to 10 days relative to Ex/RAD/control; format: functional, organism-based
[4] = test system: Mus musculus; experiment: Radioprotective activity in irradiated C57BL/6J mouse model assessed as increase in WBC count at 300 mg/kg, ip preincubated with compound for 15 to 1440 mins followed by irradiation with 6.5 Gy and measured after 10 to 13 days of radiation relative to Ex-RAD/control; format: functional, organism-based
[5] = test system: Mus musculus; experiment: Radioprotective activity in irradiated C57BL/6J mouse model assessed as increase in RBC count at 300 mg/kg, ip preincubated with compound for 15 to 1440 mins followed by irradiation with 6.5 Gy and measured after 10 to 13 days of radiation; format: functional, organism-based; conditions: Erythrocyte
[6] = test system: Mus musculus; experiment: Radioprotective activity in irradiated C57BL/6J mouse model assessed as increase in platelets count at 300 mg/kg, ip preincubated with compound for 15 to 1440 mins followed by irradiation with 6.5 Gy and measured after 2 days of radiation; format: functional, organism-based; conditions: time 15-4320 min
[7] = test system: Mus musculus; experiment: Radioprotective activity in irradiated C57BL/6J mouse model assessed as increase in platelets count at 300 mg/kg, ip preincubated with compound for 15 to 1440 mins followed by irradiation with 6.5 Gy and measured after 3 to 10 days of radiation; format: functional, organism-based
[8] = test system: Mus musculus; experiment: Radioprotective activity in irradiated C57BL/6J mouse model assessed as increase in platelets count at 300 mg/kg, ip preincubated with compound for 15 to 1440 mins followed by irradiation with 6.5 Gy and measured after 14 days of radiation relative to Ex-rad/control; format: functional, organism-based; conditions: time 15-21600 min
[9] = test system: Mus musculus; experiment: Radioprotective activity in irradiated C57BL/6J mouse model assessed as increase in HGB count at 300 mg/kg, ip preincubated with compound for 15 to 1440 mins followed by irradiation with 6.5 Gy and measured after 10 days of radiation relative to Ex-rad/control; format: functional, organism-based; conditions: time 15-15840 min
[10] = test system: Mus musculus; experiment: Radioprotective activity in irradiated C57BL/6J mouse model assessed as increase in HGB count at 300 mg/kg, ip preincubated with compound for 15 to 1440 mins followed by irradiation with 6.5 Gy and measured after 13 days of radiation; format: functional, organism-based; conditions: time 15-20160 min
[11] = test system: AHH-1; experiment: Radioprotective activity against radiation-induced DNA damage in human AHH-1 cells assessed as reduction in gamma-H2AX foci in nucleus preincubated with compound for 24 hrs followed by irradiation with 1.175 Gy/min and measured after 2 hrs of radiation by fluorescence microscopic analysis; format: functional, cell-based; conditions: time 26.0 hrs
[12] = test system: Mus musculus; experiment: Radioprotective activity against radiation-induced intestinal injury C57BL/6J mouse model assessed as increase in number of crypt foci at 300 mg/kg, ip preincubated with compound for 15 to 1440 mins followed by irradiation with 13 Gy and measured after 84 hrs of radiation by H and E staining based analysis; format: functional, organism-based; conditions: time 15-6480 min
[13] = test system: Mus musculus; experiment: Radioprotective activity in C57BL/6J mouse model assessed as upregulation of G-CSF expression at 300 mg/kg, ip measured after 2 hrs of 7.5 Gy radiation by ELISA analysis; format: functional, organism-based
[14] = test system: Mus musculus; experiment: Radioprotective activity in C57BL/6J mouse model assessed as upregulation of IL-6 expression at 300 mg/kg, ip measured after 2 hrs of 7.5 Gy radiation by ELISA analysis; format: functional, organism-based
[15] = test system: Mus musculus; experiment: Radioprotective activity in C57BL/6J mouse model assessed as upregulation of IL-12 expression at 300 mg/kg, ip measured after 2 hrs of 7.5 Gy radiation by ELISA analysis; format: functional, organism-based
[16] = test system: AHH-1; experiment: Induction of apoptosis in human AHH-1 cells assessed as viable cells preincubated with compound for 24 hrs followed by irradiation with 4 Gy and measured after 24 hrs of radiation by Annexin V-FITC/PI staining based flow cytometry analysis (reference value: 66.9 %); format: functional; conditions: time 48 hrs
[17] = test system: AHH-1; experiment: Induction of apoptosis in human AHH-1 cells assessed as early apoptotic cells preincubated with compound for 24 hrs followed by irradiation with 4 Gy and measured after 24 hrs of radiation by Annexin V-FITC/PI staining based flow cytometry analysis (reference value: 14.3%); format: functional; conditions: time 48 hrs
[18] = test system: AHH-1; experiment: Induction of apoptosis in human AHH-1 cells assessed as late apoptotic cells preincubated with compound for 24 hrs followed by irradiation with 4 Gy and measured after 24 hrs of radiation by Annexin V-FITC/PI staining based flow cytometry analysis (reference value: 17.7%); format: functional; conditions: time 48 hrs
[19] = test system: AHH-1; experiment: Induction of apoptosis in human AHH-1 cells assessed as viable cells preincubated with compound for 24 hrs followed by irradiation with 6 Gy and measured after 24 hrs of radiation by Annexin V-FITC/PI staining based flow cytometry analysis (reference value: 52.3%); format: functional; conditions: time 48 hrs
[20] = test system: AHH-1; experiment: Induction of apoptosis in human AHH-1 cells assessed as necrotic cells preincubated with compound for 24 hrs followed by irradiation with 6 Gy and measured after 24 hrs of radiation by Annexin V-FITC/PI staining based flow cytometry analysis (reference value: 3.71%); format: functional; conditions: time 48 hrs
[21] = test system: AHH-1; experiment: Induction of apoptosis in human AHH-1 cells assessed as viable cells preincubated with compound for 24 hrs followed by irradiation with 8 Gy and measured after 24 hrs of radiation by Annexin V-FITC/PI staining based flow cytometry analysis (reference value: 45.1%); format: functional; conditions: time 48 hrs
[22] = test system: AHH-1; experiment: Induction of apoptosis in human AHH-1 cells assessed as early apoptotic cells preincubated with compound for 24 hrs followed by irradiation with 8 Gy and measured after 24 hrs of radiation by Annexin V-FITC/PI staining based flow cytometry analysis (reference value: 16.5%); format: functional; conditions: time 48 hrs
[23] = test system: AHH-1; experiment: Induction of apoptosis in human AHH-1 cells assessed as late apoptotic cells preincubated with compound for 24 hrs followed by irradiation with 8 Gy and measured after 24 hrs of radiation by Annexin V-FITC/PI staining based flow cytometry analysis (reference value: 33.6%); format: functional; conditions: time 48 hrs
[24] = test system: AHH-1; experiment: Radioprotective activity against human AHH-1 cells assessed as decrease in p53 expression pretreated with compound for 24 hrs in presence of ionizing irradiation by Western blotting analysis; format: functional, cell-based
[25] = test system: AHH-1; experiment: Radioprotective activity against human AHH-1 cells assessed as decrease in Bax expression pretreated with compound for 24 hrs in presence of ionizing irradiation by Western blotting analysis; format: functional, cell-based
[26] = molecular target: T1, Toll-like receptor 2 (Homo sapiens, UniProt O60603); experiment: Agonist activity at TLR2 in human HUVEC cells assessed as increase in MyD88 level pretreated with compound for 24 hrs in presence of ionizing irradiation by Western blotting analysis; format: cell-based; conditions: filed as agonist
[27] = molecular target: T1, Toll-like receptor 2; experiment: Agonist activity at TLR2 in human HUVEC cells assessed as increase in p65 level pretreated with compound for 24 hrs in presence of ionizing irradiation by Western blotting analysis; format: cell-based; conditions: filed as agonist

T1 sequence (O60603 whole entry): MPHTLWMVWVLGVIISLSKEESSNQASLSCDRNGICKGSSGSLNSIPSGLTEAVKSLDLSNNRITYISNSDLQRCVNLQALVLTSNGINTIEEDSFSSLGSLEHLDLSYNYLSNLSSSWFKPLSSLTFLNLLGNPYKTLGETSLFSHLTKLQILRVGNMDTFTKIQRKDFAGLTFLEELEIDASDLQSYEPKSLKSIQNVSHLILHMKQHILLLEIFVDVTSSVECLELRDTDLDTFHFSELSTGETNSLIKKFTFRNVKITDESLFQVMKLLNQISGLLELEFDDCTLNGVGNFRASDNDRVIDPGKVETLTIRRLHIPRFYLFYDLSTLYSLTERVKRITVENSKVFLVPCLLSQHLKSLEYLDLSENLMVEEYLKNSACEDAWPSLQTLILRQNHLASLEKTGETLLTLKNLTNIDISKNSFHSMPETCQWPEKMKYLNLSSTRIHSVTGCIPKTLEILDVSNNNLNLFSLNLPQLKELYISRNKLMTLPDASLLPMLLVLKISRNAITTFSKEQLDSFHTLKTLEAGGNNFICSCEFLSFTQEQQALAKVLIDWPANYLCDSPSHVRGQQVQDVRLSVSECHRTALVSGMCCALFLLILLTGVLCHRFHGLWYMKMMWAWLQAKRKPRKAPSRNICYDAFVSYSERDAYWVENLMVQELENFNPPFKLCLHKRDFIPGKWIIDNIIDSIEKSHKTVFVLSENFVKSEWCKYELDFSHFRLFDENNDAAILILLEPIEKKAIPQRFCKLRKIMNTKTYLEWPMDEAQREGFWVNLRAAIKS

Structure (SMILES): [O-][S+](Cc1ccc(F)cc1)c1ccc2cc(Br)ccc2n1 (configuration not stated)
- Activity [1]: 55.86%
- Activity [2]: Active
- Activity [3]: Active
- Activity [4]: Active
- Activity [5]: Active
- Activity [6]: Active
- Activity [7]: inactive
- Activity [8]: Active
- Activity [9]: Active
- Activity [10]: Active
- Activity [11]: Active
- Activity [12]: Active
- Activity [13]: Active
- Activity [14]: Active
- Activity [15]: Active
- Activity [16]: 72.4%
- Activity [17]: 14%
- Activity [18]: 12.2%
- Activity [19]: 67.6%
- Activity [20]: 2.55%
- Activity [21]: 67.3%
- Activity [22]: 10.8%
- Activity [23]: 17.8%
- Activity [24]: Active
- Activity [25]: Active
- Activity [26]: Active
- Activity [27]: Active
